Where a SMILES comes first, the peptide text is derived from it. Bridges are numbered along the chain shown (N, C = ends). [ ]: non-standard residue; d: D form. The star is where a group is joined. DOTA = O=C(O)CN1CCN(CC(=O)O)CCN(CC(=O)*)CCN(CC(=O)O)CC1; Phe(2,4-Cl2) = N[C@@H](Cc1ccc(Cl)cc1Cl)C(=O)O; Phe(4-NH2) = Nc1ccc(C[C@H](N)C(=O)O)cc1; Pro(4S-NH2) = N[C@@H]1CN[C@H](C(=O)O)C1; Pro(4R-NH2) = N[C@H]1CN[C@H](C(=O)O)C1; 1Nal = N[C@@H](Cc1cccc2ccccc12)C(=O)O; Ser(ΨH,HPro) = O=C(O)[C@@H]1COCN1; Hyp = O=C(O)[C@@H]1C[C@@H](O)CN1; Pentanoyl(4-Me) = CC(C)CCC(=O)*; Cha = N[C@@H](CC1CCCCC1)C(=O)O; Cit = NC(=O)NCCC[C@H](N)C(=O)O; dNva = CCC[C@@H](N)C(=O)O; NMeA = CN[C@@H](C)C(=O)O; Nle = CCCC[C@H](N)C(=O)O; Nva = CCC[C@H](N)C(=O)O; Hexanoyl = CCCCCC(=O)*; Pentanoyl = CCCCC(=O)*
How the values were obtained:
[1] = target: T1, uPAR-expressing HEC-265 human endometrial adenocarcinoma cells (Homo sapiens, UniProt Q03405); assay: Competitive FACS binding assay; settings: pIC50 category of FACS binding
T1 construct: Cell surface uPAR-expressing HEC-265 human endometrial adenocarcinoma cells; host or cells: HEC-265
Outline: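 Competitive displacement of a 10 nM biotinylated peptide from HEC-265 cells (1 h, 4 °C, PBS/1% BSA), detected via APC-streptavidin by flow cytometry. pIC50 from four-parameter logistic fit of median fluorescence versus concentration.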

human uPAR (uPAR-Fc) = target: T2, human uPAR (uPAR-Fc) (Homo sapiens, UniProt Q03405); assay: Surface plasmon resonance (SPR) assay, single cycle kinetics; type: binding; settings: pKD category for uPAR SPR activity assay; uPAR-Fc on Protein A-Chip, 25°C; read-out: pKD CAT (converted)
T2 construct: comprising amino acids Leu23-Arg303 according to UniProt entry Q03405.1; purchased R&D Systems 10378-UK-100
Outline: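 uPAR-Fc (Leu23-Arg303 extracellular domains, human IgG1 Fc) captured on Protein A chip to ~2000 RU; single-cycle kinetics at 25°C in HEPES running buffer pH 7.4 with 0.1% DMSO. KD from double-referenced sensorgrams fitted to 1:1 Langmuir model, reported as pKD.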

T1 sequence (Q03405 23-335): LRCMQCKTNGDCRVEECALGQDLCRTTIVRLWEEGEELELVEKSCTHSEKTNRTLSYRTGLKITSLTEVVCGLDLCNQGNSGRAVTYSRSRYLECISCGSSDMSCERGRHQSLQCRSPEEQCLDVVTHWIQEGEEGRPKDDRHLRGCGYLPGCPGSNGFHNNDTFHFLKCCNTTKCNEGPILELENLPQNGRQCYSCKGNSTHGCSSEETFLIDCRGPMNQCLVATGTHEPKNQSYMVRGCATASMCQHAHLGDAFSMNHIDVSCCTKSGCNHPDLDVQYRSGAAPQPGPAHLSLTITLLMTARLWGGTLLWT
T2 sequence (Q03405 23-303): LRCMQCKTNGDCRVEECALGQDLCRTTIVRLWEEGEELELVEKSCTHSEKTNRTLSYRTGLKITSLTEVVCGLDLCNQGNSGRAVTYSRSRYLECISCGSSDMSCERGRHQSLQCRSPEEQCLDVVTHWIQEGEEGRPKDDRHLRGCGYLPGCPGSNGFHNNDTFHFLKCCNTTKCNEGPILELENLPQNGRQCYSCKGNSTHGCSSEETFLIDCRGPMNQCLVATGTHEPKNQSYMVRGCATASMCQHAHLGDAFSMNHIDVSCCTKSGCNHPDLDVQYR

IC50 [1] | Kd (human uPAR (uPAR-Fc)) | SMILES
≤ 10 nM | < 1.58 nM | CCCCC(=O)N[C@H]1CSSC[C@@H](C(N)=O)NC(=O)[C@H](CCC)NC(=O)[C@H]([C@@H](C)CC)NC(=O)[C@@H]2C[C@@H](O)CN2C(=O)[C@@H]2CCCN2C(=O)[C@H](Cc2ccccc2)NC(=O)[C@H](Cc2ccc(O)cc2)NC(=O)[C@H](CCC(N)=O)NC(=O)[C@H](CCCNC(N)=O)NC1=O [UPAR-309, Pent-[Cys-Cit-Gln-Tyr-Phe-Pro-Hyp-Ile-Nva-Cys]-NHz] (Pentanoyl-C[Cit]QYFP[Hyp]I[Nva]C-NH2; disulfide 1-10)
≤ 10 nM | < 1.58 nM | CC[C@H](C)[C@@H]1NC(=O)[C@@H](C)NC(=O)[C@@H]2CCCN2C(=O)[C@H](Cc2cccc3ccccc23)NC(=O)[C@H](Cc2ccc(O)cc2)NC(=O)[C@H](CCC(N)=O)NC(=O)[C@H](CCCNC(N)=O)NC(=O)[C@@H](NC(=O)CCC(C)C)CSSC[C@@H](C(N)=O)NC(=O)[C@H](CC(C)C)NC1=O [UPAR-310, iHex-[Cys-Cit-Gln-Tyr-1Ni-Pro-ala-Ile-Leu-Cys]-NH2] ({Pentanoyl(4-Me)}-C[Cit]QY[1Nal]P[dA]ILC-NH2; disulfide 1-10)
≤ 10 nM | 1.58 to 10 nM | CC[C@H](C)[C@@H]1NC(=O)[C@H](C)NC(=O)[C@@H]2CCCN2C(=O)[C@H](Cc2ccccc2)NC(=O)[C@H](Cc2ccc(O)cc2)NC(=O)[C@H](CCSC)NC(=O)[C@H](CCCNC(=N)N)NC(=O)[C@@H](NC(=O)[C@H](CC(C)C)NC(=O)[C@H](CC(=O)O)NC(=O)[C@@H](N)CCSC)CSSC[C@@H](C(N)=O)NC(=O)[C@H](CC(C)C)NC1=O [UPAR-312, H-Met-Asp-Leu-[Cys-Arg-Met-Tyr-Phe-Pro-Ala-Ile-Leu-Cys]-NH2] (H-MDLCRMYFPAILC-NH2; disulfide 4-13)
≤ 10 nM | < 1.58 nM | CCCCC(=O)N[C@H]1CSSC[C@@H](C(N)=O)NC(=O)[C@H](CCC)NC(=O)[C@H]([C@@H](C)CC)NC(=O)[C@@H]2C[C@@H](N)CN2C(=O)[C@@H]2CCCN2C(=O)[C@H](Cc2ccccc2)NC(=O)[C@H](Cc2ccc(O)cc2)NC(=O)[C@H](CCCNC(=N)N)NC(=O)[C@H](CCCNC(=N)N)NC1=O [UPAR-313, Pent-[Cys-Arg-Arg-Tyr-Phe-Pro-Tap-Ile-Nva-Cys]-NH2] (Pentanoyl-CRRYFP[Pro(4R-NH2)]I[Nva]C-NH2; disulfide 1-10)
≤ 10 nM | < 1.58 nM | CC[C@H](C)[C@@H]1NC(=O)[C@@H](C)NC(=O)[C@@H]2CCCN2C(=O)[C@H](Cc2ccccc2)NC(=O)[C@H](Cc2ccc(N)cc2)NC(=O)[C@H](CCC(N)=O)NC(=O)[C@H](CCCNC(N)=O)NC(=O)[C@@H](NC(=O)CCC(C)C)CSSC[C@@H](C(N)=O)NC(=O)[C@H](CC(C)C)NC1=O [UPAR-314, iHex-[Cys-Cit-Gln-Aph-Phe-Pro-ala-Ile-Leu-Cys]-NH2] ({Pentanoyl(4-Me)}-C[Cit]Q[Phe(4-NH2)]FP[dA]ILC-NH2; disulfide 1-10)
≤ 10 nM | < 1.58 nM | CCCCC(=O)N[C@H]1CSSC[C@@H](C(N)=O)NC(=O)[C@H](CCC)NC(=O)[C@H]([C@@H](C)CC)NC(=O)[C@@H]2C[C@@H](O)CN2C(=O)[C@@H]2CCCN2C(=O)[C@H](Cc2ccc(Cl)cc2Cl)NC(=O)[C@H](Cc2ccc(O)cc2)NC(=O)[C@H](CCCCNC(=O)CN2CCN(CC(=O)O)CCN(CC(=O)O)CCN(CC(=O)O)CC2)NC(=O)[C@H](CCCNC(N)=O)NC1=O [UPAR-315, Pent-[Cys-Cit-Lys(DOTA)-Tyr-Egm-Pro-Hyp-Ile-Nva-Cys]-NHz] (Pentanoyl-C[Cit]K(DOTA)Y[Phe(2,4-Cl2)]P[Hyp]I[Nva]C-NH2; disulfide 1-10)
12.6 to 31.6 nM | 1.58 to 10 nM | CCCCC(=O)N[C@H]1CSSC[C@@H](C(N)=O)NC(=O)[C@H](CCC)NC(=O)[C@H]([C@@H](C)CC)NC(=O)[C@H](C)N(C)C(=O)[C@@H]2CCCN2C(=O)[C@H](Cc2ccccc2)NC(=O)[C@H](Cc2ccc(O)cc2)NC(=O)[C@H](CCCCNC(=O)CN2CCN(CC(=O)O)CCN(CC(=O)O)CCN(CC(=O)O)CC2)NC(=O)[C@H](CCCNC(N)=O)NC1=O [UPAR-316, Pent-[Cys-Cit-Lys(DOTA)-Tyr-Phe-Pro-Nma-Ile-Nva-Cys]-NH2] (Pentanoyl-C[Cit]K(DOTA)YFP[NMeA]I[Nva]C-NH2; disulfide 1-10)
≤ 10 nM | < 1.58 nM | CCCCCC(=O)N[C@H](C(=O)N[C@@H](CC(C)C)C(=O)N[C@H]1CSSC[C@@H](C(N)=O)NC(=O)[C@H](CC(C)C)NC(=O)[C@H]([C@@H](C)CC)NC(=O)[C@H](C)NC(=O)[C@@H]2CCCN2C(=O)[C@H](Cc2ccccc2)NC(=O)[C@H](Cc2ccc(O)cc2)NC(=O)[C@H](CC(C)C)NC(=O)[C@H](CC(=O)O)NC1=O)[C@@H](C)O [UPAR-318, Hex-Thr-Leu-[Cys-Asp-Leu-Tyr-Phe-Pro-Ala-Ile-Leu-Cys]-NH2] (Hexanoyl-TLCDLYFPAILC-NH2; disulfide 3-12)
39.8 to 100 nM | 10 to 100 nM | CC[C@H](C)[C@@H]1NC(=O)[C@@H](C)NC(=O)[C@H](C)NC(=O)[C@H](Cc2ccccc2)NC(=O)[C@H](Cc2ccc(O)cc2)NC(=O)[C@H](CCC(N)=O)NC(=O)[C@H](CCCNC(N)=O)NC(=O)[C@@H](NC(=O)CCC(C)C)CSSC[C@@H](C(N)=O)NC(=O)[C@H](CC(C)C)NC1=O [UPAR-319, iHex-[Cys-Cit-Gln-Tyr-Phe-Ala-ala-Ile-Leu-Cys]-NH2] ({Pentanoyl(4-Me)}-C[Cit]QYFA[dA]ILC-NH2; disulfide 1-10)
≤ 10 nM | < 1.58 nM | CCCCC(=O)N[C@H]1CSSC[C@@H](C(N)=O)NC(=O)[C@H](CCC)NC(=O)[C@H]([C@@H](C)CC)NC(=O)[C@@H]2C[C@@H](O)CN2C(=O)[C@@H]2CCCN2C(=O)[C@H](Cc2ccccc2)NC(=O)[C@H](Cc2ccc(N)cc2)NC(=O)[C@H](CCCCNC(=O)CN2CCN(CC(=O)O)CCN(CC(=O)O)CCN(CC(=O)O)CC2)NC(=O)[C@H](CCCNC(N)=O)NC1=O [UPAR-320, Pent-[Cys-Cit-Lys(DOTA)-Aph-Phe-Pro-Hyp-Ile-Nva-Cys]-NH2] (Pentanoyl-C[Cit]K(DOTA)[Phe(4-NH2)]FP[Hyp]I[Nva]C-NH2; disulfide 1-10)
≤ 10 nM | 1.58 to 10 nM | CC[C@H](C)[C@@H]1NC(=O)[C@@H](C)NC(=O)[C@@H]2COCN2C(=O)[C@H](Cc2ccccc2)NC(=O)[C@H](Cc2ccc(O)cc2)NC(=O)[C@H](CCC(N)=O)NC(=O)[C@H](CCCNC(N)=O)NC(=O)[C@@H](NC(=O)CCC(C)C)CSSC[C@@H](C(N)=O)NC(=O)[C@H](CC(C)C)NC1=O [UPAR-321, iHex-[Cys-Cit-Gln-Tyr-Phe-Oxa-ala-Ile-Leu-Cys]-NH2] ({Pentanoyl(4-Me)}-C[Cit]QYF[Ser(ΨH,HPro)][dA]ILC-NH2; disulfide 1-10)
12.6 to 31.6 nM | 1.58 to 10 nM | CCCCC(=O)N[C@H]1CSSC[C@@H](C(N)=O)NC(=O)[C@H](CCC)NC(=O)[C@H]([C@@H](C)CC)NC(=O)[C@@H](CCC)NC(=O)[C@@H]2CCCN2C(=O)[C@H](Cc2ccccc2)NC(=O)[C@H](Cc2ccc(O)cc2)NC(=O)[C@H](CCC(N)=O)NC(=O)[C@H](CCCNC(=N)N)NC1=O [UPAR-322, Pent-[Cys-Arg-Gln-Tyr-Phe-Pro-nva-Ile-Nva-Cys]-NH2] (Pentanoyl-CRQYFP[dNva]I[Nva]C-NH2; disulfide 1-10)
12.6 to 31.6 nM | 1.58 to 10 nM | CCCC[C@@H]1NC(=O)[C@H](CCCNC(=N)N)NC(=O)[C@@H](NC(=O)[C@H](CC(C)C)NC(=O)[C@H](CC(=O)O)NC(C)=O)CSSC[C@H](C(N)=O)NC(=O)[C@H](CC(C)C)NC(=O)[C@H]([C@@H](C)CC)NC(=O)[C@H](C)NC(=O)[C@@H]2CCCN2C(=O)[C@H](Cc2ccccc2)NC(=O)[C@H](Cc2ccc(O)cc2)NC1=O [UPAR-323, Ac-Asp-Leu-[Cys-Arg-Nle-Tyr-Phe-Pro-Ala-Ile-Leu-cys]-NH2] (Ac-DLCR[Nle]YFPAIL[dC]-NH2; disulfide 3-12)
≤ 10 nM | < 1.58 nM | CCCCC(=O)N[C@H]1CSSC[C@@H](C(N)=O)NC(=O)[C@H](CCC)NC(=O)[C@H]([C@@H](C)CC)NC(=O)[C@@H]2C[C@@H](O)CN2C(=O)[C@@H]2CCCN2C(=O)[C@H](Cc2ccccc2)NC(=O)[C@H](Cc2c[nH]cn2)NC(=O)[C@H](CCCCNC(=O)CN2CCN(CC(=O)O)CCN(CC(=O)O)CCN(CC(=O)O)CC2)NC(=O)[C@H](CCCNC(N)=O)NC1=O [UPAR-324, Pent-[Cys-Cit-Lys(DOTA)-His-Phe-Pro-Hyp-Ile-Nva-Cys]-NH2] (Pentanoyl-C[Cit]K(DOTA)HFP[Hyp]I[Nva]C-NH2; disulfide 1-10)
≤ 10 nM | < 1.58 nM | CCCCC(=O)N[C@H]1CSSC[C@@H](C(N)=O)NC(=O)[C@H](CCC)NC(=O)[C@H]([C@@H](C)CC)NC(=O)[C@@H]2C[C@H](N)CN2C(=O)[C@@H]2CCCN2C(=O)[C@H](Cc2ccccc2)NC(=O)[C@H](Cc2ccc(O)cc2)NC(=O)[C@H](CCCCNC(=O)CN2CCN(CC(=O)O)CCN(CC(=O)O)CCN(CC(=O)O)CC2)NC(=O)[C@H](CCCNC(N)=O)NC1=O [UPAR-325, Pent-[Cys-Cit-Lys(DOTA)-Tyr-Phe-Pro-4Ap-Ile-Nva-Cys]-NH2] (Pentanoyl-C[Cit]K(DOTA)YFP[Pro(4S-NH2)]I[Nva]C-NH2; disulfide 1-10)
≤ 10 nM | < 1.58 nM | CC(C)CCC(=O)N[C@H]1CSSC[C@@H](C(N)=O)NC(=O)[C@H](CC(C)C)NC(=O)[C@H](CC2CCCCC2)NC(=O)[C@@H](C)NC(=O)[C@@H]2CCCN2C(=O)[C@H](Cc2ccccc2)NC(=O)[C@H](Cc2ccc(O)cc2)NC(=O)[C@H](CCC(N)=O)NC(=O)[C@H](CCCNC(N)=O)NC1=O [UPAR-326, iHex-[Cys-Cit-Gln-Tyr-Phe-Pro-ala-Cha-Leu-Cys]-NH2] ({Pentanoyl(4-Me)}-C[Cit]QYFP[dA][Cha]LC-NH2; disulfide 1-10)
